# Experimental data published in patent US20230147389A1, “Transdermal Drug Delivery System for Delivering a Drug to a Patient” (priority 2021, published 2023).
# Like-named read-outs stand apart in the source and are kept apart here.
# Key:
# [1] = pig
# Excerpt: Further, the rate of permeation may be determined using the Attenuated Total Reflection Fourier Transform Infrared Spectroscopy (ATR-FTIR), and multivariate modeling. […] The flux results may be obtained based on comprehensive in vitro permeation studies by using the pig abdominal skin samples, that may be normalized to reflect the equivalence of 0.10 cm skin thickness.
# A proprietary chemometric modeling method may be used to perform quantitative analysis based on spectral data. In addition, the method may be used to determine the concentration of the active ingredient dissolved in the EthoGel formulation.
# The skin permeation study may be conducted using a Bruker ATR-FTIR instrument (Model Alpha; Bruker Optics Ltd., MA, USA) equipped with a 2×2 mm diamond spectral window. Pig abdominal skin samples may be obtained from a local meat supplier. The skin samples may be treated by removing the fat and connecting tissues from the dermis side, followed by cutting them into 2×2 cm-size pieces and keeping them at freezing temperature for later use. Further, skin thickness may be measured before the experiment by allowing the skin sample to warm to room temperature and by using a Material Thickness Meter (Model No. PCE-CT 26; PCE Americas Inc, Jupiter, Fla., USA).
# In a typical experiment, the skin sample may be put on the spectral window of the spectrometer with the dermis side facing the window. Further, about 1 g of the EthoGel formulation may be applied on the stratum corneum side of the skin sample, which may be covered by an applicator with an area of 3.5 cm^2 to minimize the loss of permeation enhancers (i.e., ethanol) through evaporation from the formulation. IR spectra may be taken at 15-60 min intervals and the experiment may be continued for up to 72 hours when needed. Further, the spectra may be used for calculating w/w % of the active ingredient (ibuprofen or diclofenac), ethanol, and glycerin on the dermis side of the skin. Chemometric modeling may be conducted using the software Unscrambler (CAMO Software AS, Oslo, Norway). The diffusion coefficients of the active ingredient, ethanol, and glycerin can be calculated using the following equation:
# where D is the diffusion coefficient (cm2/H), L is the lag time (hour) and h is the skin thickness (cm).
# The flux J (μg/cm2/H) is calculated using the following equation:
# where D is the diffusion coefficient, C is the concentration (μg/mL) of the active ingredient dissolved in the EthoGel formulation and h is the thickness of the skin.
# [2] = current marketed TD patch products; per 24 hours; cited from earlier work
Compound,flux achieved by EGATDDS [1],flux ([1]; 1 w/w %) [μg/cm2/H],flux ([1]; 4 w/w %) [μg/cm2/H],amount of drug delivered in 24 hours [2] [mg]
"O=C(O)Cc1ccccc1Nc1c(Cl)cccc1Cl [diclofenac, Diclofenac]",5-324 μg/cm2/H,54,,
"CC(C)Cc1ccc(C(C)C(=O)O)cc1 (stereo not drawn) [ibuprofen, Ibuprofen]",25-1337 μg/cm2/H,,283,
CCCN(CCc1cccs1)[C@H]1CCc2c(O)cccc2C1 [ritigotine],,,,1
CCN(C)C(=O)Oc1cccc([C@H](C)N(C)C)c1 [rivastigmine],,,,4.5
